The NIST ThermoML archive (doi:10.1021/acs.jced.6b00542)

How the values were obtained:
[1] = for speed of sound: 100 kPa, Frequency=3 MHz, Sing-around technique in a fixed-path interferometer; for speed of sound / viscosity / mass density: Liquid; for viscosity / mass density: 102 kPa; for viscosity: Concentric cylinders viscometry; for mass density: Vibrating tube method; for surface tension liquid-gas: Pendant drop shape
[2] = xn = mol fraction of the nth substance listed; conditions: Liquid; for speed of sound: 100 kPa, Frequency=3 MHz, Sing-around technique in a fixed-path interferometer; for viscosity / mass density: 102 kPa; for viscosity: Concentric cylinders viscometry; for mass density: Vibrating tube method

CCCCc1ccccc1 [butylbenzene]
[1]
Conditions	mass density [kg/m3]	speed of sound [m/s]	surface tension liquid-gas [mN/m]	viscosity [mPa·s]
293.15 K	860.51	1353.7	–	1.05
294.2 K	–	–	29.1	–
303.15 K	852.49	1314.9	–	0.91
313.15 K	844.43	1276.6	–	0.801
323.15 K	836.34	1238.7	–	0.713
333.15 K	828.21	1201.4	–	0.636
343.15 K	819.9	–	–	0.571
353.15 K	811.7	–	–	0.516
363.15 K	803.4	–	–	0.469
373.15 K	795	–	–	0.43

CCCCc1ccccc1 [butylbenzene] + CCCCCCCCCCCCCCCCC
[2], x1 = 1
Conditions	mass density [kg/m3]	speed of sound [m/s]	viscosity [mPa·s]
303.15 K	852.49	1314.9	0.91
313.15 K	844.43	1276.6	0.801
323.15 K	836.34	1238.7	0.713
333.15 K	828.21	1201.4	0.636
343.15 K	819.9	–	0.571
353.15 K	811.7	–	0.516
363.15 K	803.4	–	0.469
373.15 K	795	–	0.43

CCCCCCCCCC [decane]
[1]
Conditions	mass density [kg/m3]	speed of sound [m/s]	surface tension liquid-gas [mN/m]	viscosity [mPa·s]
293.15 K	729.88	1253.8	–	0.922
294.6 K	–	–	23.8	–
303.15 K	722.31	1214.5	–	0.794
313.15 K	714.69	1175.7	–	0.693
323.15 K	707.02	1137.3	–	0.615
333.15 K	699.29	1099.3	–	0.545
343.15 K	691.5	–	–	0.486
353.15 K	683.6	–	–	0.436
363.15 K	675.6	–	–	0.396
373.15 K	667.5	–	–	0.362

CCCCCCCCCC [decane] + CCCCc1ccccc1
[2], x2 = 0
Conditions	mass density [kg/m3]	speed of sound [m/s]	viscosity [mPa·s]
293.15 K	729.88	1253.8	0.922
303.15 K	722.31	1214.5	0.794
313.15 K	714.69	1175.7	0.693
323.15 K	707.02	1137.3	0.615
333.15 K	699.29	1099.3	0.545
343.15 K	691.5	–	0.486
353.15 K	683.6	–	0.436
363.15 K	675.6	–	0.396
373.15 K	667.5	–	0.362

CCCCCCCCCCCC [dodecane]
[1]
Conditions	mass density [kg/m3]	speed of sound [m/s]	surface tension liquid-gas [mN/m]	viscosity [mPa·s]
293.15 K	748.79	1297.9	–	1.47
294.1 K	–	–	25.1	–
303.15 K	741.54	1259.6	–	1.24
313.15 K	734.25	1221.9	–	1.06
323.15 K	726.94	1184.7	–	0.916
333.15 K	719.59	1148	–	0.801
343.15 K	712.2	–	–	0.706
353.15 K	704.7	–	–	0.627
363.15 K	697.2	–	–	0.562
373.15 K	689.6	–	–	0.506
